Holding throughout (type): cell-based, mice
One assay addresses T1, TRPM8 (Mus musculus, UniProt Q8R4D5).
T1 construct: endogenous in cells; host or cells: primary murine dorsal root ganglion (DRG) neurons
The assay is described as follows: Calcium imaging of DRG neurons: TRPM8 sensitization (menthol). The conditions noted are these: activated with menthol 100 μM. The procedure:
DRG primary cultures were prepared as described previously (Brenneis et al., 2011 b). Briefly, twenty to thirty murine dorsal roots ganglia (DRGs) were dissected from spinal segments and transferred directly into ice-cold Hanks' balanced salt solution with CaCI2 and MgCI2 (lnvitrogen, Carlsbad, Calif., USA). The DRGs were than incubated with Neurobasal Medium (lnvitrogen, Carlsbad, Calif., USA) containing 500 U/ml collagenase (Sigma, Deisenhofen, Germany) and 2.5 U/ml dispase II (Roche, Mannheim, Germany) for 75 mins at 37° C. After removal of the collagenase/dispase-solution cells were washed three times with medium containing 10% FCS, penicillin/streptomycin/gentamycin (lnvitrogen, Carlsbad, Calif., USA) and incubated in 0.05% trypsin for 10 min at 37° C. After two washing steps, the cells were mechanically dissociated with a 1 ml pipette and plated on Poly-L-lysine (Sigma) coated coverslips. […]
Calcium-imaging experiments were performed with a Leica calcium-imaging setup, consisting of a Leica DMI 4000 b inverted microscope equipped with a DFC360 FX (CCD) camera, Fura-2 filters, and an N-Plan 10×/0.25 Ph1 objective (all from Leica), was used. […] For each experiment, an area with large cell numbers 24 h after preparation (see DRG primary cultures) was chosen and 40-110 cells were monitored simultaneously. […]

In another assay the test system is TRPV1. The assay is described as follows: Whole-cell voltage clamp of DRG neurons, capsaicin-induced inward current. The conditions noted are these: DRG neurons pre-treated with 9-HODE (200 nM, 3 min), capsaicin 1 μM. The protocol: All recordings were carried out at room temperature within 48 hour of plating DRG neurons. Whole-cell voltage clamp recordings were made with an Axopatch 200A amplifier (Molecular Devices) and patch pipettes with resistances of 2-3 MΩ. Pipette solution was 5 mM NaCl, 140 mM KCl, 0.5 mM CaCl2, 2 mM MgCl2, 5 mM EGTA, 10 mM HEPES, and 3 mM Na2ATP, pH 7.2, adjusted with NaOH. The external solution was 140 mM NaCl, 5 mM KCl, 2 mM CaCl2, 2 mM MgCl2, 10 mM HEPES, and 10 mM D-glucose, pH 7.4, adjusted with NaOH (Sigma). Command protocols were generated and data was digitized with a Digidata 1440A A/D interface with pCLAMP10 software. We used gravity perfusion system connected with perfusion pencil (AutoMate Scientific) to externally apply 9-HODE or capsaicin to the cells.

A further assay concerns DRG neurons. The assay is described as follows: Neuronal CGRP release from DRG neurons. The settings on record: 9-HODE 1 μM with capsaicin 400 nM, 10 min. The procedure: For the determination of neuronal calcitonin gene-related peptide (CGRP) release, dorsal root ganglia (DRGs) neurons were isolated from mice as previously described (Brenneis et al., 2011 a). Briefly, DRG cultures were stimulated for 10 m in with 1 μM (±) 9-HODE (Cayman) alone or in combination with 400 nM capsaicin (Sigma). Cultures supplemented with capsaicin alone served as control. CGRP concentrations in supernatants were analysed utilizing the rat CGRP Enzyme ImmunoAssay Kit (SPI-Bio, Montigny, France) according to the manufacturer's instructions. Absorption was measured with the help of the Spectra Max 250 (Molecular Devices, lsmaning, Germany)

T1 sequence (Q8R4D5 whole entry): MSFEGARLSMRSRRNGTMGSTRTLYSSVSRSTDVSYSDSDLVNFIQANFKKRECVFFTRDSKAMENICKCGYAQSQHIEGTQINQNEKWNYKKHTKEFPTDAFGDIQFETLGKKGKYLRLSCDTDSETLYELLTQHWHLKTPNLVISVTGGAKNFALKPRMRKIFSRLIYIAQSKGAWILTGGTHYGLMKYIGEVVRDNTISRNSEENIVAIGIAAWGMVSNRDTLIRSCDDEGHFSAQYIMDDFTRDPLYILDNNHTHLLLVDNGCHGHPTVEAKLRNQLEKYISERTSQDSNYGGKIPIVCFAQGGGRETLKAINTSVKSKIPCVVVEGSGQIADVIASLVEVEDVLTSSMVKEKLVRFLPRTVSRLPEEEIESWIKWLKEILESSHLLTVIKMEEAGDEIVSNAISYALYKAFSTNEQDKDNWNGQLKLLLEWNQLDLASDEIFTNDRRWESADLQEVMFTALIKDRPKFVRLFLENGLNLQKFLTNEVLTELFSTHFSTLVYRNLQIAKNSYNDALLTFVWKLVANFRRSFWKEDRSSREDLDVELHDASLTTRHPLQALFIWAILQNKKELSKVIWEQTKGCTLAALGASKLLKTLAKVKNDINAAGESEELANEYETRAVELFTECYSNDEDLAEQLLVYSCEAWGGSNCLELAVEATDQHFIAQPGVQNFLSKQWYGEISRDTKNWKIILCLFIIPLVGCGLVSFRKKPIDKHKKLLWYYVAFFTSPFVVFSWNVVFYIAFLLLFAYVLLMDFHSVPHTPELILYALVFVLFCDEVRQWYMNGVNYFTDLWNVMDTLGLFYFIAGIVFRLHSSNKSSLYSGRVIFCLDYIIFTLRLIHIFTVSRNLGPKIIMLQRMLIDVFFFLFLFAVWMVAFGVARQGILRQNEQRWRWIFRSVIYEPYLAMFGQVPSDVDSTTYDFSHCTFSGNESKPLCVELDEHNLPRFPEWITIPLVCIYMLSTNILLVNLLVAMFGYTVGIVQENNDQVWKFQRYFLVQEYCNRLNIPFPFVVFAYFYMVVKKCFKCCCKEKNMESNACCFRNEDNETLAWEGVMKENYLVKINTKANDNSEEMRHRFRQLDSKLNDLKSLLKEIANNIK

On to `CCCCC/C=C\C=C\C(O)CCCCCCCC(=O)O` (stereo not drawn) [9-HODE, 9-hydroxy-10E,12Z-octadecadienoic acid], for which the “sensitizing effects for TRPM8” value on TRPM8 is on record as “no sensitizing effects”. In addition, the capsaicin-induced inward current entry with TRPV1 is “significantly increased”. Also, the “capsaicin-dependent CGRP release” value with DRG neurons is “increased the capsaicin-dependent CGRP release significantly”.

Values taken from patent US20190211397A1, “INHIBITORS OF GPR132 FOR USE IN PREVENTING AND/OR TREATING CHEMOTHERAPY-INDUCED NEUROPATHIC PAIN” (Fraunhofer-Gesellschaft zur Foerderung der angewandten …, priority 2016, published 2019).
